In publication PMC3121759 (PLoS ONE, 2011):
“And” between values parts separate entries of the source, which are not always exact repeats. Equal entries are not always repeated. Where two headings read alike, the source gives them in different places.

Assays:
GlyT-1 [1] = molecular target: T1, GlyT-1 (Rattus norvegicus, UniProt P28572); test: Equilibrium saturation binding of [3H]CHIBA-3007 to rat brain membranes
T1 construct: the tissues of whole brains or each specific brain region were homogenized; from tissue; host or cells: rat brain (whole brain or dissected regions; male Crl:CD (SD) rats)
T1 sequence (P28572 1-638): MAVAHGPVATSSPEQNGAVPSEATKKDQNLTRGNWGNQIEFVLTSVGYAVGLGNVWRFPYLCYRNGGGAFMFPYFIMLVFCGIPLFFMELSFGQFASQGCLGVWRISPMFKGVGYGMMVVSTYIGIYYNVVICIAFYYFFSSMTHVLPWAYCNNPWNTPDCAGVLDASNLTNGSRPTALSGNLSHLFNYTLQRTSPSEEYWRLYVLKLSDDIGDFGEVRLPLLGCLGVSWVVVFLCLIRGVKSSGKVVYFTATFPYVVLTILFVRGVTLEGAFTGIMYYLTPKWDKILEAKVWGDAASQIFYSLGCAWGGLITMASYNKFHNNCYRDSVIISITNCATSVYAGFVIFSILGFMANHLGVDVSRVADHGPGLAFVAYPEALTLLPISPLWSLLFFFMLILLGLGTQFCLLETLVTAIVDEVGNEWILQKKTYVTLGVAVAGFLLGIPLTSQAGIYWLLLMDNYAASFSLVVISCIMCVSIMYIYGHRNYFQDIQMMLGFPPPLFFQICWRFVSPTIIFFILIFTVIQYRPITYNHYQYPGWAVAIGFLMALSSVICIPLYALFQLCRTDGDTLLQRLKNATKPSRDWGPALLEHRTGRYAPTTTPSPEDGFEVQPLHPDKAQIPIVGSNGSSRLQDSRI
Method: For saturation-binding isotherms, 6 grade-diluted concentrations of [^3H]CHIBA-3007 (0.3125–10 nM) were used. Specific binding of [^3H]CHIBA-3007 to rat brain membranes was saturable and rapid, and represented >90% of total binding over the concentration range of [^3H]CHIBA-3007 (Figure 2).
Figure 2 Specific binding of [^3H]CHIBA-3007 to rat brain membranes. Rat brain membranes were incubated with various concentrations of [^3H]CHIBA-3007 (0.3125–10 nM) for 120 min at room temperature. Nonspecific binding was estimated in the presence of 10 µM SSR504734. The results are from a typical experiment and values are the average of duplicate determinations. […] TB: total binding, NSB: nonspecific binding, SB: specific binding. The results are means ± S.E.M. of three independent experiments performed in duplicate. […] The data are the mean of three independent experiments performed in duplicate.
(§1) For the [^3H]CHIBA-3007-binding assay, the tissues of whole brains or each specific brain region were homogenized in 15 volumes (w/v) of 10 mM 4-(2-hydroxyethyl)-1- piperazineethanesulfonic acid (HEPES) at pH 7.4 for 30 s on ice. The homogenate was centrifuged at 40,000 g for 15 min at 4°C. The supernatant was discarded and the pellet was re-suspended, homogenized and centrifuged as above. The membrane pellet was washed and re-suspended in ice-cold HEPES buffer and was then centrifuged three times. The final pellet was re-suspended in 15 volumes of the buffer (120 mM NaCl, 2 mM KCl, 1 mM CaCl2, 1 mM MgCl2 10 mM HEPES, pH 7.5 at room temperature).
Assays of the binding of [^3H]CHIBA-3007 to rat brain membranes were performed. Aliquots of the rat brain membrane suspension (200 µL) were added in duplicate to a reaction mixture containing [^3H]CHIBA-3007 and the indicated concentrations of test drug in a final volume of 0.5 mL. Non-specific binding was estimated in the presence of 10 µM SSR504734, a potent and selective GlyT-1 inhibitor [34]. [3H]CHIBA-3007 binding was allowed to occur for 120 min at room temperature for the equilibrium saturation and inhibition studies. The binding reaction was terminated by rapid vacuum filtration onto Whatman GF/B glass filters pretreated with 0.5% polyethyleneimine (Sigma-Aldrich Co.) using a 24-channel cell harvester (Brandell, Gaithersburg, MD). The filters were washed with 5 mL of ice-cold assay buffer 3 times, and placed in vials with 4 mL scintillation cocktail. The radioactivity trapped by the filters was determined using a liquid scintillation counter (Beckman LS-6500; Beckman Coulter K.K., Tokyo, Japan).
(§2) The data are shown as the mean ± standard error of the mean (S.E.M.). The dissociation constant (Kd) and maximal binding (Bmax) values from saturation binding and the IC50 values from binding displacement by each drug were determined using the program GraphPad Prism (GraphPad Software, San Diego, CA). […] Correlation was analyzed by Pearson's Correlation Coefficient (PASW Statistics 19, Tokyo, Japan). Significance was set at p<0.05.

GlyT-1 [2] = molecular target: T1, GlyT-1; test: Drug inhibition of [3H]CHIBA-3007 binding to rat brain membranes; conditions: [3H]CHIBA-3007 (1 nM)
Method: The supernatant was discarded and the pellet was re-suspended, homogenized and centrifuged as above. The membrane pellet was washed and re-suspended in ice-cold HEPES buffer and was then centrifuged three times. The final pellet was re-suspended in 15 volumes of the buffer (120 mM NaCl, 2 mM KCl, 1 mM CaCl2, 1 mM MgCl2 10 mM HEPES, pH 7.5 at room temperature).
The binding reaction was terminated by rapid vacuum filtration onto Whatman GF/B glass filters pretreated with 0.5% polyethyleneimine (Sigma-Aldrich Co.) using a 24-channel cell harvester (Brandell, Gaithersburg, MD). The filters were washed with 5 mL of ice-cold assay buffer 3 times, and placed in vials with 4 mL scintillation cocktail. The radioactivity trapped by the filters was determined using a liquid scintillation counter (Beckman LS-6500; Beckman Coulter K.K., Tokyo, Japan).
as §2

GlyT-1 [3] = molecular target: T1, GlyT-1; test: Inhibition of [14C]glycine uptake in rat brain membranes; type: biochemical
Method: The homogenate was centrifuged at 1,000 g for 10 min to remove nuclei and debris, and then the supernatant was centrifuged again at 20,000 g for 20 min (synaptosomal P2 fraction). The pellet was washed and re-suspended in ice-cold 0.32 M sucrose, buffered with 10 mM HEPES (pH 7.4) and centrifuged again at 20,000 g for 20 min (washed P2 fraction). The pellet was re-suspended in 10 volumes of assay buffer with the following composition: 10 mM HEPES buffer (pH 7.4) containing 140 mM NaCl, 5.5 mM KCl, 1.8 mM CaCl2, 0.8 mM MgSO4, 5 mM glucose and 5 mM L-alanine (HB). The protein concentrations were measured by using a DC protein assay kit (Bio-Rad Laboratories Inc., Tokyo, Japan).
Non-specific uptake was estimated in the presence of 30 µM SSR504734. […] The filters were washed by buffer, and the radioactivity trapped by the filters was determined using a liquid scintillation counter as described above.
as §2

GlyT-1 [4] = molecular target: T1, GlyT-1; conditions: cited from earlier work
GlyT-1 [5] = molecular target: T1, GlyT-1; test: Regional distribution of [3H]CHIBA-3007 binding in rat brain; conditions: [3H]CHIBA-3007 1 nM, seven rat brain regions
Method: After sacrificing the rats by decapitation, the brains were rapidly removed from the skulls. Whole brains or seven specific cerebral regions - the cerebral cortex, striatum, hippocampus, thalamus, midbrain, cerebellum and pons - dissected on ice by the method of Glowinski and Iversen were stored at −80°C until use for the assay.
as §1
Assays of the binding of [^3H]CHIBA-3007 to rat brain membranes were performed. […] The radioactivity trapped by the filters was determined using a liquid scintillation counter (Beckman LS-6500; Beckman Coulter K.K., Tokyo, Japan).

GlyT-1 [6] = conditions: cited from earlier work
GlyT-1 [7] = conditions: read-out: IC50 for [3H]glycine uptake; cited from earlier work
[8] = 120 min room temperature, mean ± S.E.M., n=3

CN1CCCC[C@@H]1[C@@H](NC(=O)c1nccc(C(F)(F)F)c1Cl)c1ccsc1 [[^3H]CHIBA-3007, [^3H]3-chloro-N-((S)-((R)-1-methylpiperidin-2-yl)(thiophen-3-yl)methyl)-4-(trifluoromethyl)picolinamide]
Kd (GlyT-1 [1]; room temperature, 0.3125–10 nM radioligand, n=3, read-out: Kd (apparent equilibrium dissociation constant)): 1.61 ± 0.16 nM

O=C(N[C@@H](c1ccsc1)[C@H]1CCCCN1)c1nccc(C(F)(F)F)c1Cl [Desmethyl-CHIBA-3007, 3-chloro-N-((S)-((R)-piperidin-2-yl)(thiophen-3-yl)methyl)-4-(trifluoromethyl)picolinamide]
Ki (GlyT-1 [2]; [8]): 35.9 ± 1.3 nM | IC50 (GlyT-1 [3]): 187 ± 40 nM

CNCC(=O)O [Sarcosine, sarcosine]
Ki (GlyT-1 [2]): 103000 nM | Ki (GlyT-1 [2]; [8]): 103000 nM | IC50 (GlyT-1 [3]): 414000 nM

[3H]C([3H])([3H])N(C)C1([C@@H](NC(=O)c2c(C)cccc2C)c2ccccc2)CCCC1 [[^3H]GSK931145]
Specific binding as share of total binding (GlyT-1 [4]; at concentrations around Kd): > 90% | Bmax (GlyT-1 [4]; rat brain): around 3000 fmol/mg protein

[3H]C([3H])([3H])N1CCCC[C@@H]1[C@@H](NC(=O)c1nccc(C(F)(F)F)c1Cl)c1ccsc1 [[^3H]CHIBA-3007, [^3H]3-chloro-N-((S)-((R)-1-methylpiperidin-2-yl)(thiophen-3-yl)methyl)-4-(trifluoromethyl)picolinamide]
Nonspecific binding (GlyT-1 [1]): < 10% | Time to reach binding equilibrium (GlyT-1 [1]; kinetic study, data not shown): less than 5 min | Specific binding as share of total binding (GlyT-1 [1]; over the concentration range 0.3125–10 nM): > 90% | Bmax (maximal number of binding sites) (GlyT-1 [1]; room temperature, n=3): 692.8 fmol/mg protein and 692.8±22.8 fmol/mg protein | Order of specific binding in brain regions (GlyT-1 [5]): midbrain > pons > thalamus > cerebellum > striatum > hippocampus > cerebral cortex

N[C@@H](COC(c1cccc(F)c1)c1ccccc1OCc1ccccc1)C(=O)O (stereo partly drawn) [ALX1393, O-[(2-benzyloxyphenyl-3-flurophenyl)methyl]-L-serine]
Ki (GlyT-1 [2]; [8]): 852 ± 56.4 nM

CN(CCC(Oc1ccc(-c2ccccc2)cc1)c1ccc(F)cc1)CC(=O)O (centres unmarked) [NFPS/ALX5407, N-[3-(4-fluorophenyl)-3-(4-phenyl-phenoxy)propyl]-sarcosine]
Ki (GlyT-1 [2]; [8]): 4.1 ± 0.9 nM | IC50 (GlyT-1 [3]): 83.7 ± 30.3 nM | Type of interaction with binding of [3H]SB-733993 and [3H]GSK931145 (GlyT-1 [4]): uncompetitive interactions

Cc1cccc(C)c1C(=O)N[C@@H](c1ccccc1)C1(N(C)C)CCCC1 [GSK931145]
pIC50 for inhibiting [3H]glycine uptake (GlyT-1 [6]): 7.58

CN(CC[C@@H](Oc1ccc(C(F)(F)F)cc1)c1ccccc1)CC(=O)O (racemic) [Org24598, (R,S)-(±)N-methyl-N-[(4-trifluoromethyl)phenoxy]-3-phenylpropylglycine]
Ki (GlyT-1 [2]; [8]): 16.9 ± 3.1 nM | IC50 (GlyT-1 [3]): 653 ± 154 nM

O=C(N[C@@H](c1ccccc1)[C@@H]1CCCCN1)c1cccc(C(F)(F)F)c1Cl [SSR504734]
Ki (GlyT-1 [2]; [8]): 24.6 ± 0.8 nM | IC50 (GlyT-1 [3]): 84.5 ± 29.8 nM | pIC50 for inhibiting [3H]glycine uptake (GlyT-1 [6]): 6.52

CN(CCOc1ccc(-c2ccc3c(c2)OCO3)cc1C(C)(C)C)CC(=O)O [LY2365109]
Ki (GlyT-1 [2]; [8]): 16.2 ± 4.9 nM | IC50 (GlyT-1 [3]): 1350 nM

COc1ccc2c(c1)CC[C@H](CN(C)CC(=O)O)[C@@H]2c1ccccc1 [Org25935]
Type of interaction with binding of [3H]SB-733993 and [3H]GSK931145 (GlyT-1 [4]): uncompetitive interactions

O=C(N[C@@H](c1cccc(-c2cn[nH]c2)c1)[C@H]1CCCCN1)c1nccc(C(F)(F)F)c1Cl [CHIBA-3008, N-((S)-(3-(1H-pyrazol-4-yl)phenyl)((R)-piperidin-2-yl)methyl)-3-chloro-4-(trifluoromethyl)pyridine-2-carboxamide]
Ki (GlyT-1 [2]; [8]): 2.2 ± 0.6 nM | IC50 (GlyT-1 [7]): 0.2 nM

Cc1cccc(C)c1C(=O)N[C@@H](c1ccccc1)C1(N(C)C)CCCC1 [[^3H]GSK931145]
Kd (GlyT-1 [4]): 1 to 2 nM
